Reference: patent publication US20240366598A1, “GLUCOSE-DEPENDENT INSULINOTROPIC POLYPEPTIDE RECEPTOR ANTAGONISTS AND USES THEREOF” (Pfizer Inc., priority 2023, published 2024)
Counter-ions that a name gives are not always drawn.

Target: T1, human Glucose-dependent Insulinotropic Polypeptide Receptor (hGIPR) (Homo sapiens, UniProt P48546)
T1 sequence (P48546 22-466): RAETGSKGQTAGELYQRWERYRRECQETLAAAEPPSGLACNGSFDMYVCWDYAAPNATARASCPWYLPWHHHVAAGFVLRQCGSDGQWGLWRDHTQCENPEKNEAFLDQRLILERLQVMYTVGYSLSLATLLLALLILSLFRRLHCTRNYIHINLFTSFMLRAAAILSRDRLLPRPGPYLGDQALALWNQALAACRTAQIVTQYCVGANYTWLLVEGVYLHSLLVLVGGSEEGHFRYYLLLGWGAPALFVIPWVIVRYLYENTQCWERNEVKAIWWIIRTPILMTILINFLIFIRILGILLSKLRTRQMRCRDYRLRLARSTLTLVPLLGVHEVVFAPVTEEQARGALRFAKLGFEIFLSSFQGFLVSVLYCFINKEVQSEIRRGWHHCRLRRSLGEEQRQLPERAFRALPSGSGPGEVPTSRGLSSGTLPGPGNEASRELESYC
Experiment: Functional in vitro GIPR antagonist potency assay (cAMP HTRF, CHO-K1 cells stably expressing hGIPR, hGIP stimulation at about EC80)
Assay type: cell-based
Conditions: geometric mean, hGIP at estimated EC80, examples marked ^2: overall geometric mean of multiple forms (including salts) tested
Method: Example AA. Functional In Vitro GIPR Antagonist Potency Assay
The functional in vitro antagonist potency for test compounds was determined by monitoring intracellular cyclic adenosine monophosphate (cAMP) levels in Chinese hamster ovary (CHO)—K1 cells stably expressing the human Glucose-dependent Insulinotropic Polypeptide Receptor (hGIPR). Following agonist activation, hGIPR associates with the G-protein complex causing the Gαs subunit to exchange bound guanosine diphosphate (GDP) for guanosine triphosphate (GTP), followed by dissociation of the Gαs-GTP complex. The activated Gas subunit can couple to downstream effectors to regulate the levels of second messengers or cAMP within the cell. Thereby, determination of intracellular cAMP levels allows for pharmacological characterization. Intracellular cAMP levels are quantitated using a homogenous assay utilizing the Homogeneous Time Resolved Fluorescence (HTRF) technology from Perkin Elmer. […] The two entities compete for binding to a monoclonal anti-cAMP antibody labeled with cryptate. The specific signal is inversely proportional to the concentration of cAMP in the cells.
Test compounds were solubilized to a concentration of 30 mM in 100% dimethyl sulfoxide (DMSO). An 11-point dilution series using 1 in 3.162-fold serial dilutions was created in 100% DMSO with a top concentration of 8 mM. The serially diluted compound was spotted with an Echo Acoustic liquid handler (Beckman Coulter) into a 384-well assay plate (Corning, Cat No. 3824) at 50 nL/well with duplicate points at each concentration, at a 200× final assay concentration (FAC). The final compound concentration range in the assay was 40 μM to […], with a final DMSO concentration of 0.5%.
Frozen assay-ready vials (at 1×10^7 cells/vial) of CHO-K1 cells stably expressing the Gs-coupled human GIPR receptor (Eurofins, DiscoverX, Cat No. 95-0146C2) were thawed, counted, and resuspended in assay buffer consisting of Hank's Balanced Salt Solution (HBSS, Lonza Cat No. 10-527) containing 20 mM (4-(2-hydroxyethyl)-1-piperazineethanesulfonic acid (HEPES, Lonza, Cat No. 17-737E), 0.1% bovine serum albumin (BSA, Sigma, Cat No. A7979), and 200 μM 3-isobutyl-1-methylxanthine (IBMX, Sigma, Cat No. 15879) at a density of 4×10^5 cells/mL. Cells were added to assay plate (5 μL/well of 4×10^5 cells/mL stock for 2,000 cells/well final) containing 50 nL of 200× FAC test compound, and incubated at 37° C. (95% O2: 5% CO2) for 2 hours, with micro-clime lids (Labcyte, Cat No. LLS-0310). Following the 2-hour cell and compound incubation, a stimulation mix comprised of hGIPR agonist human glucose-dependent insulinotropic polypeptide (hGIP, full length, Sigma Cat No. G2269) in assay buffer/0.1% DMSO was added to the assay plate (5 μL/well) at an estimated EC80 FAC (based on previous hGIP agonist curves) and incubated for another 30 minutes with micro-clime lids at 37° C. (95% O2: 5% CO2), after which intracellular cAMP levels were quantified as per Perkin Elmer's protocol (5 μL of d2 and then 5 μL cryptate, incubated for 1 hour at room temperature). Emission spectra of samples were measured on a Pherastar plate reader (BMG Labtech Inc) using a HTRF protocol (excitation, 320 nm; emission, 665 nm/620 nm).
(95% O2: 5% CO2), with a micro-clime lid. Following the 2-hour cell and DMSO incubation, a hGIP concentration response curve at 2× FAC (12-point curve using 1 in 3 serial dilutions, with triplicate points at each concentration, 100 nM final top concentration) in assay buffer/1% DMSO was added (5 μL/well) and incubated for a further 30 minutes with a micro-clime lid at 37° C. (95% O2: 5% CO2), after which intracellular cAMP levels were quantified and samples measured as described previously. Experiments passed quality control if the agonist concentration used for stimulation fell between the on-the-day EC50-EC90. […]

Structure (SMILES) | IC50
Cc1cc(C(=O)O)cc(C)c1-c1ccc(NC(=O)[C@H]2CCCN2C(=O)Nc2ccc(C(C)C)cc2)cc1 [Example 67, 2,6-dimethyl-4′-[(1-{[4-(propan-2-yl)phenyl]carbamoyl}-D-prolyl)amino][1,1′-biphenyl]-4-carboxylic acid] | 0.014 µM
COc1cc(-c2ccc(NC(=O)[C@H]3CCCN3C(=O)Nc3ccc(C(C)C)c(C)c3)cc2)ccc1C(=O)O [Example 30, 3-Methoxy-4′-[(1-{[3-methyl-4-(propan-2-yl)phenyl]carbamoyl}-D-prolyl)amino][1,1′-biphenyl]-4-carboxylic acid] | 0.0057 µM
CC(C)c1ccc(NC(=O)N2CCC[C@@H]2C(=O)Nc2ccc(-c3ccc(O)c(Cl)c3)cc2)cc1 [Example 96, (2R)-N^2-(3′-chloro-4′-hydroxy[1,1′-biphenyl]-4-yl)-N^1-[4-(propan-2-yl)phenyl]pyrrolidine-1,2-dicarboxamide] | 0.18 µM
Cc1cc(NC(=O)N2CCC[C@@H]2C(=O)Nc2ccc(-c3ccc(C(=O)O)nc3C)cc2)ccc1C(C)C [Example 168, 6-methyl-5-{4-[(1-{[3-methyl-4-(propan-2-yl)phenyl]carbamoyl}-D-prolyl)amino]phenyl}pyridine-2-carboxylic acid] | 0.015 µM
CC(C)c1ccc(NC(=O)N2CCC[C@@H]2C(=O)Nc2c(F)cc(-c3ccc(C(=O)O)cc3)cc2F)cc1 [Example 15, 3′,5′-difluoro-4′-[(1-{[4-(propan-2-yl)phenyl]carbamoyl}-D-prolyl)amino][1,1′-biphenyl]-4-carboxylic acid] | 0.0081 µM
Cc1cc(NC(=O)[C@H]2CCCN2C(=O)Nc2ccc(C(C)C)c(F)c2)ccc1-c1ccc(C(=O)O)cc1 [Example 219, 4′-[(1-{[3-fluoro-4-(propan-2-yl)phenyl]carbamoyl}-D-prolyl)amino]-2′-methyl[1,1′-biphenyl]-4-carboxylic acid] | 0.0029 µM
O=C(O)c1ccc(-c2ccc(NC(=O)[C@H]3CCCN3C(=O)Nc3ccc(C4(C(F)(F)F)CC4)cc3)nc2)cc1 [Example 178, 4-(6-{[1-({4-[1-(trifluoromethyl)cyclopropyl]phenyl}carbamoyl)-D-prolyl]amino}pyridin-3-yl)benzoic acid] | 0.011 µM
CC(C)c1ccc(NC(=O)N2CCC[C@@H]2C(=O)Nc2ccc(-c3ccc(O)c(C#N)c3)cc2)cc1 [Example 100, (2R)-N^2-(3′-cyano-4′-hydroxy[1,1′-biphenyl]-4-yl)-N^1-[4-(propan-2-yl)phenyl]pyrrolidine-1,2-dicarboxamide] | 0.027 µM
CC(C)c1ccc(NC(=O)N2CCC[C@@H]2C(=O)Nc2ccc(-c3cc(F)c(C(=O)O)c(Cl)c3)cc2)cc1 [Example 83, 3-chloro-5-fluoro-4′-[(1-{[4-(propan-2-yl)phenyl]carbamoyl}-D-prolyl)amino][1,1′-biphenyl]-4-carboxylic acid] | 0.23 µM
CCC(C)c1ccc(NC(=O)N2CCC[C@@H]2C(=O)Nc2ccc(-c3ccc(C(=O)O)cc3)cc2)cc1 (stereo partly drawn) [Example 111, 4′-[(1-{[4-(butan-2-yl)phenyl]carbamoyl}-D-prolyl)amino][1,1′-biphenyl]-4-carboxylic acid] | 0.011 µM
Cc1cc(C(=O)O)ccc1-c1ccc(NC(=O)[C@H]2CCCN2C(=O)Nc2ccc(C(C)C)cc2)nc1 [Example 171, 3-methyl-4-{6-[(1-{[4-(propan-2-yl)phenyl]carbamoyl}-D-prolyl)amino]pyridin-3-yl}benzoic acid] | 0.016 µM
Cc1cc(NC(=O)N2CCC[C@@H]2C(=O)Nc2ccc(-c3ccc(C(=O)O)cc3)cc2)ccc1Cl [Example 43, ammonium 4′-({1-[(4-chloro-3-methylphenyl)carbamoyl]-D-prolyl}amino)[1,1′-biphenyl]-4-carboxylate] | 0.049 µM
CC(C)c1ccc(NC(=O)N2CCC[C@@H]2C(=O)Nc2ccc(-c3ccc(C(=O)O)cc3)cc2F)cc1 [Example 6, 3′-Fluoro-4′-[(1-{[4-(propan-2-yl)phenyl]carbamoyl}-D-prolyl)amino][1,1′-biphenyl]-4-carboxylic acid] | 0.0065 µM
O=C(O)c1ccc(-c2ccc(NC(=O)[C@H]3CCCN3C(=O)Nc3ccc(Br)cc3)cc2)cc1 [Example 63, 4′-({1-[(4-bromophenyl)carbamoyl]-D-prolyl}amino)[1,1′-biphenyl]-4-carboxylic acid] | 0.0062 µM
Cc1cc(-c2ccc(NC(=O)[C@H]3CCCN3C(=O)Nc3ccc(C(C)C)cc3)nc2)ccc1C(=O)O [Example 200, 2-methyl-4-{6-[(1-{[4-(propan-2-yl)phenyl]carbamoyl}-D-prolyl)amino]pyridin-3-yl}benzoic acid] | 0.0099 µM
Cc1cc(C(=O)O)ccc1-c1ccc(NC(=O)[C@H]2CCCN2C(=O)Nc2ccc(C(C)C)c(F)c2)nc1 [Example 176, 4-{6-[(1-{[3-fluoro-4-(propan-2-yl)phenyl]carbamoyl}-D-prolyl)amino]pyridin-3-yl}-3-methylbenzoic acid] | 0.011 µM
COc1cc(C(=O)O)ccc1-c1ccc(NC(=O)[C@H]2CCCN2C(=O)Nc2ccc(C(C)C)cc2)cc1 [Example 29, 2-Methoxy-4′-[(1-{[4-(propan-2-yl)phenyl]carbamoyl}-D-prolyl)amino][1,1′-biphenyl]-4-carboxylic acid] | 0.017 µM
Cc1cc(NC(=O)N2CCC[C@@H]2C(=O)Nc2ccc(-c3ccc(C(=O)O)nc3C)cc2)ncc1C(C)C [Example 216, 6-methyl-5-{4-[(1-{[4-methyl-5-(propan-2-yl)pyridin-2-yl]carbamoyl}-D-prolyl)amino]phenyl}pyridine-2-carboxylic acid, trifluoroacetate salt] | 0.065 µM
Cc1ccc(CNC(=O)N2CCC[C@@H]2C(=O)Nc2ccc(-c3ccc(C(=O)O)nc3C)cc2)cc1F [Example 212, 5-{4-[(1-{[(3-fluoro-4-methylphenyl)methyl]carbamoyl}-D-prolyl)amino]phenyl}-6-methylpyridine-2-carboxylic acid] | 0.018 µM
CC(C)c1ccc(NC(=O)N2CCC[C@@H]2C(=O)Nc2ccc(-c3ccc(O)c(F)c3)cc2)cc1 [Example 54, (2R)-N^2-(3′-fluoro-4′-hydroxy[1,1′-biphenyl]-4-yl)-N^1-[4-(propan-2-yl)phenyl]pyrrolidine-1,2-dicarboxamide] | 0.14 µM
O=C(O)c1ccc(-c2ccc(NC(=O)[C@H]3CCCN3C(=O)Nc3ccc(C4CC4)cc3)cc2)cc1 [Example 7, Ammonium 4′-({1-[(4-cyclopropylphenyl)carbamoyl]-D-prolyl}amino)[1,1′-biphenyl]-4-carboxylate] | 0.0081 µM
CC(C)c1ccc(NC(=O)N2CCC[C@@H]2C(=O)Nc2ccc(-c3c(F)cc(C(=O)O)cc3F)cc2)cc1 [Example 48, 2,6-difluoro-4′-[(1-{[4-(propan-2-yl)phenyl]carbamoyl}-D-prolyl)amino][1,1′-biphenyl]-4-carboxylic acid] | 0.023 µM
